How the values were obtained:
[1] = test system: Male Sprague-Dawley rats; experiment: Maximal Electroshock Seizure (MES) rat model; format: in vivo; details: po, 4 hours
Procedure: Male, Sprague-Dawley rats and CD-1 mice were used for all studies. All animals were allowed ad-lib access to food and water except during experiment. Animals were housed within an animal vivarium maintained under a 12 h light:dark cycle (lights on: 07:00 h), and all experiments were conducted in the animals light phase. For all experiments, animals were habituated to the vivarium for a minimum of 72 h before experimentation. The experimental procedures used in the present investigation were conducted under the Association for Assessment and Accreditation of Laboratory Animal Care (AAALAC) and the Canadian Council on Animal Care (CCAC) guidelines.
All compounds were sonicated in 5% Tween 80® in saline or methylcellulose 0.5% (wgt/vol), using MC and sterile water and injected in a dose volume of 5 ml/kg or 10 ml/kg (rat), and 10 ml/kg (mouse). Drugs were administered by either the oral, intraperitoneal or intravenous route.
Male Sprague-Dawley rats of body weight 80-100 g were used for these studies. Each experiment was conducted over 3 consecutive days. On day 1 and 2, each rat received a single electrical stimulus (150 mA, 0.2 s duration, 60 Hz) via corneal electrodes moistened with saline (Shock stimulator type 221: Harvard apparatus). […] Typically this reflected approximately 70-90% of the initial group.
On the test day following a defined drug pretreatment period, rats received a maximal electroshock (150 mA, 0.2 s duration, 60 Hz) via corneal electrodes. Protection was defined as absence of a full tonic seizure within 10 s of stimulus delivery. Twenty minutes before the MES procedure, the animals were tested on a fixed speed rotorod (best score from 3 trials at 8 r.p.m, trial duration=60 s) to give an early assessment of drug effect on gross motor function.

[2] = test system: Frings audiogenic seizure-susceptible mice; experiment: Frings audiogenic seizure (AGS)-susceptible mouse model; format: in vivo
From the text: Frings audiogenic seizure (AGS)-susceptible mice model examines the ability of an investigational drug to alter the onset and/or severity of seizures in a genetic mouse model of seizure susceptibility. Mice are genetically susceptible to sound-induced reflex seizures. Their seizure phenotype is characterized by wild running, loss of righting reflex, tonic flexion, and tonic extension in response to high-intensity sound stimulation. […] For example, the prototypical anticonvulsants phenytoin and ethosuximide display widely divergent clinical spectrums in humans, but are both active against sound-induced seizures in mice. Yet, the preclinical utility of this animal model rests in the useful information that can be obtained within a genetically susceptible model of seizures. Further, efficacy in this model provides proof of concept of brain bioavailability following systemic administration. The Frings AGS-susceptible mouse has a well-validated epilepsy phenotype that makes it particularly useful as a screening model. Beginning at about 21 days of age, Frings AGS-susceptible mice display prominent seizure activity in response to a high-intensity sound stimulus. They then remain susceptible to sound throughout their life. This is in stark contrast to the DBA2J AGS-susceptible mouse, which is the other common model of sound-induced seizures, as DBA2J mice are only susceptible to sound-induced seizures during a narrow developmental window (post-natal days 18-30). Thus, the Frings AGS-susceptible mouse seizures respond to a wide range of CNS-active drugs and display sound-induced seizures throughout their lifetime. In this regard, Frings AGS-susceptible mice are a highly useful screening model for the identification and characterization of compounds potentially effective against inherited epilepsy.
Male and female Frings audiogenic seizure-susceptible mice (18-25 g) are maintained in an in-house colony at the University of Utah. For each screening test, groups of 8 mice each are treated i.p. with varying doses of the investigational compound. At the time of peak effect as determined in the MES test (Test 4 in CF1 mice), individual mice are placed in a round plexiglass jar (diameter, 15 cm, height, 18 cm) and exposed to a sound stimulus of 110 decibels (11 KHz) delivered for 20 sec. Mice are observed for 25 sec for the presence or absence of hind limb tonic extension. Mice not displaying hind limb tonic extension are considered protected. The severity of a seizure may also be quantitated by assigning a numerical score to the observed response, e.g. no response—0; wild running for <10 sec—1; wild running for >10 sec—2; clonic seizure—3; forelimb extension/hind limb flexion—4; tonic seizure—5.

## O=C1COc2cc(OCc3ccc(OC(F)F)cc3)ccc2N1 [Compound I(B)]
[1]
  ED50: 20.1 ± 0.7 mg/kg
[2]; Mus musculus, ip, sound-induced seizures
  ED50: 13 ± 2 mg/kg
[2]; i.p.
  effect on AGS: dose-dependently blocks AGS

From US10428030B2, “Heterocycle derivatives and their use for the treatment of CNS disorders” (Trillium Therapeutics Inc., priority 2015, dated 2019)
